From the NIST ThermoML archive (doi:10.1016/j.fluid.2015.12.007)

Assay: xn = mol fraction of the nth substance listed
Settings: 101 kPa, Liquid; for speed of sound: Sing-around technique in a fixed-path interferometer; for mass density: Vibrating tube method

CC(O)CO (centres undefined) [1,2-propanediol] + CCCC[n+]1ccn(C)c1.O=S(=O)([N-]S(=O)(=O)C(F)(F)F)C(F)(F)F
Settings	mass density [kg/m3]	speed of sound [m/s]
293.15 K, x2 = 0.0606	1117.8	1446.5
293.15 K, x2 = 0.1118	1168.99	1406.4
293.15 K, x2 = 0.2003	1234.54	1358.1
293.15 K, x2 = 0.3056	1289.66	1319.6
293.15 K, x2 = 0.408	1328.41	1294.8
293.15 K, x2 = 0.4987	1355.11	1279.5
293.15 K, x2 = 0.602	1379.69	1265.9
293.15 K, x2 = 0.7047	1399.49	1256.2
293.15 K, x2 = 0.7945	1413.97	1249.2
293.15 K, x2 = 0.8971	1428	1243.5
298.15 K, x2 = 0.0606	1113.84	1435.8
298.15 K, x2 = 0.1118	1164.21	1395.8
298.15 K, x2 = 0.2003	1230.02	1345.7
298.15 K, x2 = 0.3056	1284.95	1307.6
298.15 K, x2 = 0.408	1323.62	1283.1
298.15 K, x2 = 0.4987	1350.28	1268
298.15 K, x2 = 0.602	1374.74	1254.5
298.15 K, x2 = 0.7047	1394.49	1244.9
298.15 K, x2 = 0.7945	1409	1238
298.15 K, x2 = 0.8971	1423.19	1232.2
303.15 K, x2 = 0.0606	1109.82	1422.8
303.15 K, x2 = 0.1118	1161.05	1382.1
303.15 K, x2 = 0.2003	1225.5	1333.5
303.15 K, x2 = 0.3056	1280.27	1295.7
303.15 K, x2 = 0.408	1318.85	1271.4
303.15 K, x2 = 0.4987	1345.27	1256.6
303.15 K, x2 = 0.602	1369.61	1243.2
303.15 K, x2 = 0.7047	1389.48	1233.8
303.15 K, x2 = 0.7945	1404.07	1226.9
303.15 K, x2 = 0.8971	1418.39	1221.1
308.15 K, x2 = 0.0606	1105.77	1408.7
308.15 K, x2 = 0.1118	1156.91	1367.8
308.15 K, x2 = 0.2003	1220.98	1321.3
308.15 K, x2 = 0.3056	1275.59	1283.8
308.15 K, x2 = 0.408	1314.09	1259.9
308.15 K, x2 = 0.4987	1340.46	1245.3
308.15 K, x2 = 0.602	1364.78	1232
308.15 K, x2 = 0.7047	1384.7	1222.7
308.15 K, x2 = 0.7945	1399.37	1215.9
308.15 K, x2 = 0.8971	1413.61	1210.2
313.15 K, x2 = 0.0606	1101.68	1396.5
313.15 K, x2 = 0.1118	1152.58	1356.3
313.15 K, x2 = 0.2003	1216.47	1309.3
313.15 K, x2 = 0.3056	1270.92	1272.2
313.15 K, x2 = 0.408	1309.33	1248.6
313.15 K, x2 = 0.4987	1335.67	1234.1
313.15 K, x2 = 0.602	1359.98	1220.9
313.15 K, x2 = 0.7047	1379.79	1211.8
313.15 K, x2 = 0.7945	1394.5	1205
313.15 K, x2 = 0.8971	1408.84	1199.3
318.15 K, x2 = 0.0606	1097.57	1383.2
318.15 K, x2 = 0.1118	1147.96	1343.7
318.15 K, x2 = 0.2003	1211.95	1297.3
318.15 K, x2 = 0.3056	1266.24	1260.6
318.15 K, x2 = 0.408	1304.59	1237.3
318.15 K, x2 = 0.4987	1330.88	1223.1
318.15 K, x2 = 0.602	1355.18	1210.1
318.15 K, x2 = 0.7047	1374.95	1201
318.15 K, x2 = 0.7945	1389.43	1194.3
318.15 K, x2 = 0.8971	1404.09	1188.6

CC(O)CO (centres undefined) [1,2-propanediol] + CCCCn1cc[n+](C)c1.F[B-](F)(F)F
Settings	mass density [kg/m3]	speed of sound [m/s]
293.15 K, x2 = 0.0521	1056.41	1527.9
293.15 K, x2 = 0.1068	1074.4	1532.7
293.15 K, x2 = 0.2089	1101.55	1538.5
293.15 K, x2 = 0.3074	1122.27	1543.9
293.15 K, x2 = 0.4035	1139.05	1549.8
293.15 K, x2 = 0.5031	1153.8	1554.6
293.15 K, x2 = 0.5907	1164.95	1559
293.15 K, x2 = 0.7031	1177.42	1564.6
293.15 K, x2 = 0.8	1187.25	1568.6
293.15 K, x2 = 0.8992	1196.18	1572
298.15 K, x2 = 0.0521	1052.69	1515.3
298.15 K, x2 = 0.1068	1070.64	1520
298.15 K, x2 = 0.2089	1097.72	1526.2
298.15 K, x2 = 0.3074	1118.42	1531.5
298.15 K, x2 = 0.4035	1135.23	1537.5
298.15 K, x2 = 0.5031	1150.01	1542.5
298.15 K, x2 = 0.5907	1161.21	1547
298.15 K, x2 = 0.7031	1173.74	1552.6
298.15 K, x2 = 0.8	1183.62	1556.7
298.15 K, x2 = 0.8992	1192.57	1560.5
303.15 K, x2 = 0.0521	1048.94	1502.2
303.15 K, x2 = 0.1068	1066.85	1507
303.15 K, x2 = 0.2089	1093.89	1513.8
303.15 K, x2 = 0.3074	1114.58	1519.2
303.15 K, x2 = 0.4035	1131.41	1525.3
303.15 K, x2 = 0.5031	1146.23	1530.3
303.15 K, x2 = 0.5907	1157.48	1535
303.15 K, x2 = 0.7031	1170.07	1540.7
303.15 K, x2 = 0.8	1180	1544.9
303.15 K, x2 = 0.8992	1188.99	1549
308.15 K, x2 = 0.0521	1045.16	1488.9
308.15 K, x2 = 0.1068	1063.06	1494
308.15 K, x2 = 0.2089	1090.06	1501.1
308.15 K, x2 = 0.3074	1110.75	1506.8
308.15 K, x2 = 0.4035	1127.62	1513.1
308.15 K, x2 = 0.5031	1142.48	1518.2
308.15 K, x2 = 0.5907	1153.77	1523
308.15 K, x2 = 0.7031	1166.42	1528.9
308.15 K, x2 = 0.8	1176.39	1533.2
308.15 K, x2 = 0.8992	1185.42	1537.5
313.15 K, x2 = 0.0521	1041.36	1475.6
313.15 K, x2 = 0.1068	1059.24	1481.1
313.15 K, x2 = 0.2089	1086.22	1488.5
313.15 K, x2 = 0.3074	1106.92	1494.5
313.15 K, x2 = 0.4035	1123.83	1501
313.15 K, x2 = 0.5031	1138.74	1506.2
313.15 K, x2 = 0.5907	1150.08	1511.1
313.15 K, x2 = 0.7031	1162.79	–
313.15 K, x2 = 0.8	1172.81	1521.7
313.15 K, x2 = 0.8992	1181.86	1526.1
318.15 K, x2 = 0.0521	1037.53	1462.3
318.15 K, x2 = 0.1068	1055.4	1468.1
318.15 K, x2 = 0.2089	1082.38	1476
318.15 K, x2 = 0.3074	1103.1	1482.3
318.15 K, x2 = 0.4035	1120.04	1488.9
318.15 K, x2 = 0.5031	1135.01	1494.3
318.15 K, x2 = 0.5907	1146.4	1499.4
318.15 K, x2 = 0.7031	1159.17	1505.6
318.15 K, x2 = 0.8	1169.23	1510.3
318.15 K, x2 = 0.8992	1178.32	1515
